In patent US20150056166A1, “FLAVONE DERIVATIVES AND THEIR USE” (Twincore GmbH, priority 2012, published 2015):
Where two headings read alike, the source gives them in different places.

Legend:
S52 (GT3a) = assay: Luciferase infection assay, chimeric reporter virus S52/3a/R2a in Huh7-Lunet/CD81 cells; assay type: cell-based, HCV; details: Hepatitis C virus, Huh-7, 72 h
JcR-2a virus particles = assay: Antiviral activity against early steps of HCV cell entry, synchronized JcR-2a infection (FIG. 3); assay type: cell-based; details: Hepatitis C virus
Description: FIG. 3: BJ486K inhibits cell entry post virus attachment. The design of the JcR-2a reporter virus construct is given at the top. Huh7-Lunet/CD81 cells were inoculated with concentrated JcR-2a particles at 4° C. for 60 minutes. Subsequently, unbound virus particles were washed away and cells were shifted to 37° C. to permit synchronized cell entry. According to the 8 experimental protocols depicted in the middle, various cell entry inhibitors including heparin (50 μg/ml), ITX5061 (10 μM), CD81-specific antibody JS-81 (2 μg/ml) and BJ486K (20 μM) were either present during inoculation (protocol 1) or were added at different time points after inoculation (protocols 2 to 8). In each case, inhibitor was present for 4 h (dashed line) and was then washed away. Efficiency of cell entry was determined 48 h post inoculation by determination of luciferase activity and is expressed relative to control infections conducted in the presence of solvent alone (DMSO). Mean values of three independent experiments each with quadruplicate measurements including the standard deviation are shown.
JcR-2a virus particles were incubated with Huh7-Lunet/CD81 cells seeded as described above for 1 h at 4° C. to synchronize cell entry. Various inhibitors including 50 μg/ml heparin (Sigma-Aldrich), CD81-specific antibody JS-81 (2 μg/ml; Becton Dickinson), ITX 5061 (10 μM) or BJ486K (20 μM), were added during virus inoculation (protocol 1) or at indicated time points after virus inoculation (protocol 2-8). After 4 h inhibitor treatment, medium was changed to fresh culture fluid without inhibitors and the cells were lysed 48 h after inoculation as described above. Efficiency of infection was determined by luciferase assay using a tube luminometer (Lumat LB9507, Berthold, Freiburg, Germany).
To resolve which step of HCV cell entry is inhibited by BJ486K, we assessed its antiviral activity when administered at different time points during the early phase of infection. To this end, Huh7-Lunet/CD81 cells were inoculated for one hour at 4° C. with a reporter virus prepared in the absence of drugs. […]

FF-Jc1 reporter virus = assay: HCV cell entry, FF-Jc1 reporter virus in Huh-7.5 cells (FIG. 9); assay type: cell-based; details: Hepatitis C virus, Huh7.5
Description: FIG. 9: Comparison of flavones 13, 14 and 15. Huh-7.5 cells were seeded in 12-well plates and infected for 4 h with FF-Jc1 reporter virus +/−inhibitor (ranging from 0-100 μM final concentration). 72 h after infection, the cells were lysed and the reporter activity measured. The mean values of 6 measurements are shown in the graph. Fluorine analogues of flavone 13, flavones 14 (BJ751/1) and 15 (BJ755-3 I), inhibit HCV cell entry with 8-10-fold increased effects compared to those of the flavone 13.

SA13 (GT5a) = assay: Luciferase infection assay, chimeric reporter virus SA13/5a/R2a in Huh7-Lunet/CD81 cells; assay type: cell-based, HCV; details: Hepatitis C virus, Huh-7, 72 h
Con1/C3-HCV = assay: Infection of primary human hepatocytes, focus-formation assay; assay type: cell-based; details: Hepatitis C virus, genotype 1b, Hepatocyte, 72 h
Description: FIG. 4: BJ486K is not affected by viral resistance towards a SR-BI-targeting compound, inhibits HCV of different genotypes and prevents infection of primary human hepatocytes Huh7-Lunet/CD81 cells were inoculated with Luc-Jc1 or Luc-Jc1/E2/G451R reporter viruses in the presence of increasing doses of (A) ITX 5061 or (B) BJ486K. Cells were lysed 72 h later. Luciferase activity was determined and is expressed relative to control infections conducted in the presence of DMSO. Mean values of four independent experiments each with quadruplicate measurements including the standard deviation are shown. […] Luciferase activity was determined 72 h later and is expressed relative to infections in the presence of DMSO. […] The inhibition of HCV infection was assessed by focus-formation assay and is expressed as % inhibition relative to DMSO-treated cells. […]
Normal-appearing liver tissue from patients seronegative for HCV, hepatitis B virus, and human immunodeficiency virus (HIV) was obtained from adult patients undergoing partial hepatectomy for the therapy of metastases. […] Three days later, infectivity titers in culture supernatants were determined by focus-formation assay as previously described by (Pene et al., Journal of Viral Hepatitis 2009;16:705-15). […]

COc1ccc(-c2cc(=O)c3c(O)c(O)c(OC)cc3o2)cc1 [BJ486K, 5,6-Dihydroxy-7-methoxy-2-(4-methoxy-phenyl)-chromen-4-one]
IC50 (S52 (GT3a)): 2.89 µM
IC90 (S52 (GT3a)): 10.7 µM
inhibition at 20 µM (JcR-2a virus particles; 20 min, read-out: inhibition of HCV infection): ~80%
inhibition at 20 µM (JcR-2a virus particles; read-out: inhibition of entry): > 90%
EC50 (FF-Jc1 reporter virus): ~2 µM
IC50 (SA13 (GT5a)): 1.39 µM
IC90 (SA13 (GT5a)): 5.33 µM
IC50 (Con1/C3-HCV): ~10 µM
